Earlier results on one compound are cited in EP1147767A1 (J.B. Chemicals & Pharmaceuticals Ltd., priority 2000, dated 2001).

For data set [1] the following is noted: 200mg 3 times daily, rectally; Ramella et al. 1993.
The conditions of data set [2]: 200 mg twice daily, rectally; Coscarelli et al. 1993.
The conditions of data set [3]: 200 mg twice daily; Pierleoni et al. 1993.
The conditions of data set [4]: rats; comparison with other drugs.
The conditions of data set [5]: 200 mg twice daily, granular formulation; versus naproxen 500 mg twice daily; Toscani et al. 1993.
The conditions of data set [6]: 200 mg/day; respiratory tract infections, ENT disorders, dysmenorrhoea, dental surgery, urogenital tract disorders, musculoskeletal injuries.
For data set [7] the following is noted: animal model; comparison with other NSAIDs.

On to `CS(=O)(=O)Nc1ccc([N+](=O)[O-])cc1Oc1ccccc1` [Nimesulide, 4'-Nitro-2'-phenoxymethanesulphonanilide], for which, in data set [1], the adverse reaction entry is “no adverse reaction”; the “pain, oedema, hyperaemia and fever” value was “significantly less pain, oedema and hyperaemia and resolution of mild fever”. Moreover, the relief of pain result in data set [2] was “gave relief in the pain associated with postoperative inflammatory complications of ear, nose and throat surgery”. Besides, the relief entry in data set [3] is recorded as “gave relief”. Also, the antipyretic potency result in data set [4] is “superior antipyretic potency to indomethacin, ibuprofen, aspirin and paracetamol”. The “analgesic efficacy (pain)” value in data set [5] is “similarly reduced pain with naproxen 500 mg twice daily”. In addition, the reducing clinical symptoms entry in data set [6] was “generally more effective than the usual therapeutic doses of naproxen, ibuprofen, ketoprofen mefenamic acid and suprofen”. Besides, in data set [7], the ulcerogenic entry was “less ulcerogenic than aspirin, indomethacin, naproxen, piroxicam and ibuprofen”.
